Test results reported in publication PMC6155752, “Synthesis of 16 New Hybrids from Tetrahydropyrans Derivatives and Morita-Baylis-Hillman Adducts: In Vitro Screening against Leishmania donovani” (Molecules : A Journal of Synthetic Chemistry and Natural …, 2017).
Several values for one entry are separate records, joined by “and”; a condition that tells them apart may be missing. Equal values may be shown once. Read-outs that look alike come from different tables or passages of the source.

Legend:
[1] = tested on: promastigotes of Leishmania donovani; test: Effect on promastigotes of Leishmania donovani (MTT viability assay, 72 h); assay type: cell-based; conditions: L. donovani promastigotes; for IC50: read-out: IC50 (half maximal inhibitory concentration)
Description: Leishmania (Leishmania) donovani (MHOM/ET/1967/HU3) was provided by Oswaldo Cruz Institute Leishmania Collection-Fiocruz-RJ-Brazil. Promastigotes were maintained in vitro at 26 °C in Schneider's medium, pH 7 (20% heat-inactivated fetal bovine serum (FBS), 100 U/mL penicillin, […] streptomycin, and 2% of male urine), as previously described. […] The plates were incubated for 72 h in a biological oxygen demand (B.O.D.) incubator at 26 °C. […] [30].The absorbance was measured using an ELISA plate reader (ELx800, BIOTEK) at 540 nm. Amphotericin® was used as a positive control. The viability of promastigotes incubated in the presence of different concentrations of adducts was determined by comparing to a culture control (L. donovani cultivated in Schneider only). The concentration that caused a 50% reduction in cell viability (IC50) was calculated by Probit analysis (SPSS 13.0 for Windows). Each experiment was performed in duplicate and repeated at least three times.

[2] = tested on: acetic acid-induced abdominal writhes; set-up: method as in earlier work; conditions: mice, ref 16 (Capim et al., Bioorg. Med. Chem. 2013); cited from earlier work
human red blood cells = test: Haemolytic assay towards human red blood cells; assay type: cell-based; conditions: HC50 red blood cells / IC50 L. donovani promastigotes
Description: Briefly, promastigotes in the logarithmic growth phase were cultured in 96-well cell culture plates at 1 × 10^6 parasites per well in […] of Schneider's medium with increasing concentrations of 3.12, 6.25, 12.5, 25, 50, 100, 200, and 400 µg/mL of Morita-Baylis-Hillman adduct. The plates were incubated for 72 h in a biological oxygen demand (B.O.D.) incubator at 26 °C. Cytotoxicity to promastigotes was evaluated by the 3-(4,5-dimethyl-2-thiazole)-2,5-diphenyltetrazolium bromide (MTT) colorimetric assay as described by Valadares et al..The absorbance was measured using an ELISA plate reader (ELx800, BIOTEK) at 540 nm. Amphotericin® was used as a positive control. The viability of promastigotes incubated in the presence of different concentrations of adducts was determined by comparing to a culture control (L. donovani cultivated in Schneider only). The concentration that caused a 50% reduction in cell viability (IC50) was calculated by Probit analysis (SPSS 13.0 for Windows). Each experiment was performed in duplicate and repeated at least three times. Haemolytic assays (HC50 > […]) towards human red blood cells were performed as described in the literature.

L. donovani = tested on: L. donovani; set-up: method as in PMID 27520941; conditions: read-out: anti-leishmania activity; cited from earlier work
Leishmania = conditions: read-out: IC50 (leishmanicidal activity), cited from earlier work
[3] = tested on: acetic acid-induced abdominal writhes; test: Acetic acid-induced abdominal writhes in mice; assay type: in vivo; conditions: unpublished results
[4] = Figure 1, hybrid 1 and precursors
[5] = Figure 1, hybrid 5 and precursor eugenol

| Compound | IC50 ([1]; Leishmania donovani) | also measured |
| --- | --- | --- |
| 2-(Hydroxy-naphthalen-2-yl-methyl)-acrylic acid 4-chloro-6-naphthalen-1-yl-tetrahydro-pyran -2-ylmethyl ester [8g] |  | IC50 (half maximal inhibitory concentration) [1]: 24.51 ± 7.5 µg/mL; IC50 [1]: 50.4 ± 15.4 µM |
| 2-(Hydroxy-naphthalen-2-yl-methyl)-acrylic acid 6-ethyl-tetrahydro-pyran-2-ylmethyl ester [9g] |  | IC50 (half maximal inhibitory concentration) [1]: 9.73 ± 4.8 µg/mL; IC50 [1]: 27.5 ± 13.6 µM |
| OC[C@H]1C[C@@H](Cl)C[C@@H](c2cccc3ccccc23)O1 (relative stereo) [compound 6, [(±)-(2,4,6-cis)-4-chloro-6-(naphthalen-1-yl)-tetrahydro-2H-pyran-2-yl]methanol] | 47.5 µg/mL and 172 µM | Calculated ED50 [2]: 27.97 μmol·kg^–1 |
| C=C(C(=O)OCC1CC(Cl)CC(c2cccc3ccccc23)O1)C(O)c1ccccc1[N+](=O)[O-] (stereo not shown) [8a, 2-[Hydroxy-(2-nitro-phenyl)-methyl]-acrylic acid 4-chloro-6-naphthalen-1-yl-tetrahydro-pyran-2-ylmethyl ester] | 7.09 µg/mL and 14.7 µM | SIrb (selectivity index on red blood cell) = HC50/IC50 (human red blood cells): >56.40 |
| C=C(C(=O)OCC1CC(Cl)CC(c2cccc3ccccc23)O1)C(O)c1cccc([N+](=O)[O-])c1 (stereo not shown) [8b, 2-[Hydroxy-(3-nitro-phenyl)-methyl]-acrylic acid 4-chloro-6-naphthalen-1-yl-tetrahydro-pyran-2-yl-methyl ester] | 8.76 µg/mL and 18.2 µM |  |
| C=C(C(=O)OCC1CC(Cl)CC(c2cccc3ccccc23)O1)C(O)c1ccc([N+](=O)[O-])cc1 (stereo not shown) [8c, 2-[Hydroxy-(4-nitro-phenyl)-methyl]-acrylic acid 4-chloro-6-naphthalen-1-yl-tetrahydro-pyran-2-ylmethyl ester] | 9.05 µg/mL and 18.8 µM |  |
| C=C(C(=O)OCC1CC(Cl)CC(c2cccc3ccccc23)O1)C(O)c1ccccn1 (stereo not shown) [8d, 2-(Hydroxy-pyridin-2-yl-methyl)-acrylic acid 4-chloro-6-naphthalen-1-yl-tetrahydro-pyran-2-yl methyl ester] | 61.9 µg/mL and 142 µM |  |
| C=C(C(=O)OCC1CC(Cl)CC(c2cccc3ccccc23)O1)C(O)c1cccnc1 (stereo not shown) [8e, 2-(Hydroxy-pyridin-3-yl-methyl)-acrylic acid 4-chloro-6-naphthalen-1-yl-tetrahydro-pyran-2-yl methyl ester] | 8.76 µg/mL and 20 µM |  |
| C=C(C(=O)OCC1CC(Cl)CC(c2cccc3ccccc23)O1)C(O)c1ccncc1 (stereo not shown) [8f, 2-(Hydroxy-pyridin-4-yl-methyl)-acrylic acid 4-chloro-6-naphthalen-1-yl-tetrahydro-pyran-2-yl methyl ester] | 8.96 µg/mL and 20.5 µM |  |
| C=C(C(=O)OCC1CC(Cl)CC(c2cccc3ccccc23)O1)C(O)c1ccc(Br)cc1 (stereo not shown) [8h, 2-[(4-Bromo-phenyl)-hydroxy-methyl]-acrylic acid 4-chloro-6-naphthalen-1-yl-tetrahydro-pyran-2-ylmethyl ester] | 17.2 µg/mL and 33.4 µM |  |
| C=C(C(=O)OCC1CCCC(CC)O1)C(O)c1ccccc1[N+](=O)[O-] (stereo not shown) [9a, 2-[Hydroxy-(2-nitro-phenyl)-methyl]-acrylic acid 6-ethyl-tetrahydro-pyran-2-ylmethyl ester] | 5.64 µg/mL and 16.1 µM | SIrb (selectivity index on red blood cell) = HC50/IC50 (human red blood cells): >70.94 |
| C=C(C(=O)OCC1CCCC(CC)O1)C(O)c1cccc([N+](=O)[O-])c1 (stereo not shown) [9b, 2-[Hydroxy-(3-nitro-phenyl)-methyl]-acrylic acid 6-ethyl-tetrahydro-pyran-2-ylmethyl ester] | 13.8 µg/mL and 39.4 µM |  |
| C=C(C(=O)OCC1CCCC(CC)O1)C(O)c1ccc([N+](=O)[O-])cc1 (stereo not shown) [9c, 2-[Hydroxy-(4-nitro-phenyl)-methyl]-acrylic acid 6-ethyl-tetrahydro-pyran-2-ylmethyl ester] | 7.03 µg/mL and 20.1 µM | SIrb (selectivity index on red blood cell) = HC50/IC50 (human red blood cells): >56.91 |
| C=C(C(=O)OCC1CCCC(CC)O1)C(O)c1ccccn1 (stereo not shown) [9d, 2-(Hydroxy-pyridin-2-yl-methyl)-acrylic acid 6-ethyl-tetrahydro-pyran-2-ylmethyl ester] | 72.3 µg/mL and 240 µM |  |
| C=C(C(=O)OCC1CCCC(CC)O1)C(O)c1cccnc1 (stereo not shown) [9e, 2-(Hydroxy-pyridin-3-yl-methyl)-acrylic acid 6-ethyl-tetrahydro-pyran-2-ylmethyl ester] | 17.7 µg/mL and 57.9 µM |  |
| C=C(C(=O)OCC1CCCC(CC)O1)C(O)c1ccncc1 (stereo not shown) [9f, 2-(Hydroxy-pyridin-4-yl-methyl)-acrylic acid 6-ethyl-tetrahydro-pyran-2-ylmethyl ester] | 57.8 µg/mL and 189 µM |  |
| C=C(C(=O)OCC1CCCC(CC)O1)C(O)c1ccc(Br)cc1 (stereo not shown) [9h, 2-[(4-Bromo-phenyl)-hydroxy-methyl]-acrylic acid 6-ethyl-tetrahydro-pyran-2-ylmethyl ester] | 2.22 µg/mL and 5.81 µM | SIrb (selectivity index on red blood cell) = HC50/IC50 (human red blood cells): >180.19 |
| C[C@@H]1[C@H](O)[C@@H](C)/C=C/C=C/C=C/C=C/C=C/C=C/C=C/[C@H](O[C@@H]2O[C@H](C)[C@@H](O)[C@H](N)[C@@H]2O)C[C@@H]2O[C@](O)(C[C@@H](O)C[C@@H](O)[C@H](O)CC[C@@H](O)C[C@@H](O)CC(=O)O[C@H]1C)C[C@H](O)[C@H]2C(=O)O [Amphotericin B, reference compound] | 0.35 µg/mL and 380 nM | SIrb (selectivity index on red blood cell) = HC50/IC50 (human red blood cells): 33.05; IC50 (L. donovani): 0.62 µM |
| C=C(C(=O)Oc1ccccc1C(=O)OC)C(O)c1ccccc1[N+](=O)[O-] (stereo not shown) [compound 1] |  | IC50 (Leishmania; [4]): 28.3 µM |
| COC(=O)c1ccccc1O [compound 2, methyl salicylate] |  | IC50 (Leishmania; [4]): 1720 µM |
| C=C(C(=O)OC)C(O)c1ccccc1[N+](=O)[O-] (stereo not shown) [compound 3] |  | IC50 (Leishmania; [4]): 347 µM |
| C=CCc1ccc(O)c(OC)c1 [compound 4, eugenol] |  | IC50 (Leishmania; [5]): 77.5 µM |
| CC[C@@H]1CCC[C@H](CO)O1 [compound 5] |  | IC50 (Leishmania; [5]): 4.7 µM |
| CC[C@@H]1CCC[C@H](CO)O1 [compound 7] | > 400 µg/mL and > 2.78 mM | Calculated ED50 [3]: 41.67 μmol·kg^–1 |
